Data: publication PMC11121837, “Impact of Nitric Oxide-Release Kinetics on Antifungal Activity” (Journal of Fungi, 2024)
Values after ≈ are worked out from the molar mass of the structure shown.

Legend:
[1] = tested on: Candida auris; assay: Susceptibility assay (MIC, broth microdilution, CLSI M27); assay type: cell-based; conditions: for MIC / NO dose at MIC: Candidozyma auris; for MIC: 24 h; for NO dose at MIC: calculated NO dose at MIC
[2] = tested on: Cryptococcus neoformans; assay: as above; assay type: cell-based; conditions: for MIC / NO dose at MIC: Cryptococcus neoformans; for MIC: 72 h; for NO dose at MIC: calculated NO dose at MIC
[3] = tested on: C. neoformans (ATCC 208821); assay: Checkerboard assay of NO donors with antifungals; assay type: cell-based, Cryptococcus neoformans
[4] = tested on: Aspergillus fumigatus spores; assay: Susceptibility assay for sporulating fungi (MIC, EUCAST E.Def.9.4); assay type: cell-based
[5] = Characterization of NO release (chemiluminescence nitric oxide analyzer); assay type: physicochemical
[6] = tested on: C. auris (ATCC MYA-5001); assay: Checkerboard assay of NO donors with antifungals; assay type: cell-based, Candida auris
[7] = tested on: C. neoformans (ATCC208821); assay type: cell-based, Cryptococcus neoformans
[8] = tested on: MatTek EpiAirway tissue (AIR-100); assay: cells; assay type: cell-based; conditions: Homo sapiens, 24 h, read-out: IC50 (concentration needed to inhibit tissue viability by 50%)
[9] = tested on: panel of fungal isolates; assay: Susceptibility assays, summary over the panel of fungal isolates; assay type: cell-based; conditions: IC50 AIR-100 / MIC
[10] = tested on: Candida albicans; assay: Susceptibility assay (MIC, broth microdilution, CLSI M27); assay type: cell-based; conditions: for MIC: 24 h; for NO dose at MIC: calculated NO dose at MIC
[11] = tested on: C. albicans (ATCC MYA-2876); assay: Checkerboard assay of NO donors with antifungals; assay type: cell-based, Candida albicans
[12] = tested on: C. auris (MYA-5001); assay type: cell-based, Candida auris
[13] = Cryptococcus neoformans ATCC MYA-4566
[14] = Cryptococcus neoformans ATCC MYA-4567
[15] = NO donor combined with 5-fluorocytosine
[16] = NO donor combined with amphotericin B
[17] = NO donor combined with butenafine
[18] = NO donor combined with caspofungin
[19] = NO donor combined with fluconazole
[20] = NO donor combined with miconazole
[21] = phosphate-buffered saline 10 mM, pH 7.4, 37 °C
[22] = ATCC14053, Candida albicans ATCC 14053
[23] = ATCC18804, Candida albicans ATCC 18804

NCCCN(CCCN)/[N+]([O-])=N/O [DPTA/NO, bis(3-aminopropyl) amine/NO]
Selectivity Index (IC50 AIR-100 / MIC) ([1]; C. auris ATCC MYA-5000): 28
Selectivity Index (IC50 AIR-100 / MIC) ([1]; C. auris ATCC MYA-5001): 35
Selectivity Index (IC50 AIR-100 / MIC) ([1]; C. auris ATCC MYA-5003): 57
MIC ([1]; Candida auris ATCC MYA-5000): 625 µg/mL (≈ 3.27 mM)
MIC ([1]; Candida auris ATCC MYA-5001): 500 µg/mL (≈ 2.61 mM)
MIC ([1]; Candida auris ATCC MYA-5003): 310 µg/mL (≈ 1.62 mM)
NO dose at MIC ([1]; Candida auris ATCC MYA-5000): 131 µg/mL
NO dose at MIC ([1]; Candida auris ATCC MYA-5001): 105 µg/mL
NO dose at MIC ([1]; Candida auris ATCC MYA-5003): 65.3 µg/mL
Selectivity Index (IC50 AIR-100 / MIC) ([2]; C. neoformans ATCC 208821): 18
Selectivity Index (IC50 AIR-100 / MIC) ([2]; C. neoformans ATCC MYA-4566): 28
Selectivity Index (IC50 AIR-100 / MIC) ([2]; C. neoformans ATCC MYA-4567): 28
MIC [2, 13]: 625 µg/mL (≈ 3.27 mM)
MIC [2, 14]: 625 µg/mL (≈ 3.27 mM)
MIC ([2]; ATCC208821, 72 h, Cryptococcus neoformans ATCC 208821): 1000 µg/mL (≈ 5.23 mM)
NO dose at MIC ([2]; ATCC208821, Cryptococcus neoformans ATCC 208821): 210 µg/mL
NO dose at MIC [2, 13]: 131 µg/mL
NO dose at MIC [2, 14]: 131 µg/mL
checkerboard classification [3, 15]: I (indifferent (I))
∑FIC [3, 15]: ≥ 1
checkerboard classification [3, 16]: I (indifferent (I))
∑FIC [3, 16]: ≥ 1
checkerboard classification [3, 17]: I (indifferent (I))
∑FIC [3, 17]: ≥ 1
checkerboard classification [3, 18]: I (indifferent (I))
∑FIC [3, 18]: ≥ 1
checkerboard classification [3, 19]: I (indifferent (I))
∑FIC [3, 19]: ≥ 1
checkerboard classification [3, 20]: S (Synergistic (S))
∑FIC [3, 20]: 0.375
Selectivity Index (IC50 AIR-100 / MIC) ([4]; A. fumigatus ATCC 1022): 14
MIC ([4]; ATCC1022, Aspergillus fumigatus ATCC 1022 spores): 1250 µg/mL (≈ 6.54 mM)
NO dose at MIC ([4]; ATCC1022, Aspergillus fumigatus ATCC 1022 spores, calculated NO dose at MIC): 262 µg/mL
[NO]t, total NO released over full duration ([5]; pH 7.4): 7.0 ± 1.1 µmol/mg
[NO]max, maximum instantaneous NO concentration [5, 21]: 2867 ± 211 ppb mg^−1
td, duration of NO release [5, 21]: 31.0 ± 3.3 h
checkerboard classification [6, 15]: I (indifferent (I))
∑FIC [6, 15]: ≥ 1
checkerboard classification [6, 16]: I (indifferent (I))
∑FIC [6, 16]: ≥ 1
checkerboard classification [6, 17]: I (indifferent (I))
∑FIC [6, 17]: ≥ 1
checkerboard classification [6, 18]: I (indifferent (I))
∑FIC [6, 18]: ≥ 1
checkerboard classification [6, 19]: I (indifferent (I))
∑FIC [6, 19]: ≥ 1
checkerboard classification [6, 20]: A (additive (A))
∑FIC [6, 20]: 0.625
outcome of passaging at sub-MIC dose [7]: yeast death after the second passage
IC50 [8]: 18000 µg/mL (≈ 94.1 mM)
selectivity indices, all strains [9]: below 100
MIC [10, 22]: 625 µg/mL (≈ 3.27 mM)
NO dose at MIC [10, 22]: 131 µg/mL
MIC [10, 23]: 625 µg/mL (≈ 3.27 mM)
NO dose at MIC [10, 23]: 131 µg/mL
Selectivity Index (IC50 AIR-100 / MIC) ([10]; C. albicans ATCC 14053): 28
Selectivity Index (IC50 AIR-100 / MIC) ([10]; C. albicans ATCC 18804): 28
Selectivity Index (IC50 AIR-100 / MIC) ([10]; C. albicans ATCC MYA-2876): 35
MIC ([10]; Candida albicans ATCC MYA-2876): 500 µg/mL (≈ 2.61 mM)
NO dose at MIC ([10]; Candida albicans ATCC MYA-2876): 105 µg/mL
checkerboard classification [11, 15]: I (indifferent (I))
∑FIC [11, 15]: ≥ 1
checkerboard classification [11, 16]: I (indifferent (I))
∑FIC [11, 16]: ≥ 1
checkerboard classification [11, 17]: I (indifferent (I))
∑FIC [11, 17]: ≥ 1
checkerboard classification [11, 18]: I (indifferent (I))
∑FIC [11, 18]: ≥ 1
checkerboard classification [11, 19]: I (indifferent (I))
∑FIC [11, 19]: ≥ 1
checkerboard classification [11, 20]: I (indifferent (I))
∑FIC [11, 20]: ≥ 1
change in MIC or MFCs after serial passaging [12]: no changes
